Key:
TRPV1 [1] = biological target: TRPV1 (Rattus norvegicus, UniProt O35433); assay: excised inside-out patch clamp, Xenopus oocytes; partial inhibition with PtdIns([…])P2, partial activation without it; assay type: cell-based; conditions: read-out: % inhibition at 50 μM
TRPV1 [2] = biological target: TRPV1 (Rattus norvegicus, UniProt O35433, D509A); assay: excised inside-out patch clamp, Xenopus oocytes; assay type: cell-based
TRPV1 (Rattus norvegicus, UniProt O35433, D509A), sequence (O35433 whole entry D509A): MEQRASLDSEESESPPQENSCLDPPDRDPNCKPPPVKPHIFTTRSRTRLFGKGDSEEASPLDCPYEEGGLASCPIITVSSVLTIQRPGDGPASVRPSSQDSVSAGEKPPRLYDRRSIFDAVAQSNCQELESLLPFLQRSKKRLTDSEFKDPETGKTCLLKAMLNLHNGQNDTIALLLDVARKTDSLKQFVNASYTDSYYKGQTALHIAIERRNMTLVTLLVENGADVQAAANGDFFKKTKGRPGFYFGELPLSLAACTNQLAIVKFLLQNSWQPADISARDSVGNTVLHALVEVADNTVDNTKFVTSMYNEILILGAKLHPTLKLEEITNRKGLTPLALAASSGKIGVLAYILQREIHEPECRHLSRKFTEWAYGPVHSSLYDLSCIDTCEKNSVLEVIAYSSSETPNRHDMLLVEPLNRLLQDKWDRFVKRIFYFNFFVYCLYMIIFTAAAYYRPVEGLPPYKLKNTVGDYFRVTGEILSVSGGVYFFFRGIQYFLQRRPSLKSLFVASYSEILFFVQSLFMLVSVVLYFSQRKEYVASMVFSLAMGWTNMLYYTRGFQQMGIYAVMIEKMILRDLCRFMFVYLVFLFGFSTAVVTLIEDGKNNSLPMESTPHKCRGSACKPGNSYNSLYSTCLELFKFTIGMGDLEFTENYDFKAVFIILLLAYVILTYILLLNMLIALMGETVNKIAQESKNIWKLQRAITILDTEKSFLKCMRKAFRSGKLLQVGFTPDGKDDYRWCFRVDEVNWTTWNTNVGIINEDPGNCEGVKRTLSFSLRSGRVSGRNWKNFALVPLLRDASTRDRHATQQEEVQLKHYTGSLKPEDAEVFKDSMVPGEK

TRPV1 (Rattus norvegicus, UniProt O35433), sequence (O35433 whole entry): as the sequence (O35433 whole entry D509A) above, with A509D counted along it

inhibition at 50 µM (TRPV1 [1]): ~50%
Structure (SMILES): CCCCCCCC(=O)OC[C@H](COP(=O)(O)O[C@@H]1[C@H](O)[C@H](O)[C@@H](O)[C@H](O)[C@H]1O)OC(=O)CCCCCCC [diC8 PtdIns]
excised inside-out patch clamp, Xenopus oocytes (TRPV1 [2]): The D509A mutant on the other hand was clearly inhibited by PtdIns

Source: PMC8095115, “Dual regulation of TRPV1 channels by phosphatidylinositol via functionally distinct binding sites” (The Journal of Biological Chemistry, 2021)
